Reference: patent publication US8173668B1 (Alcon Research, Ltd., priority 2007, dated 2012)

How the values were obtained:
[1] = tested on: Human trabecular meshwork (TM) cells; test: PGE2 production (RIA) in human trabecular meshwork cells; type: cell-based; conditions: 1 h at 37° C., BK 100 nM or 1 μM, fluprostenol 1 μM, non-peptide agonists 1 μM or 10 μM, FIG. 6
Procedure: The ability of BK agonists to stimulate prostaglandin E2 (PGE2) production was examined as follows. Human trabecular meshwork (TM) cells were seeded in culture plates and allowed to reach confluence. […] Fluprostenol was used as a positive control. After this time the assay was terminated by placing the assay plates on ice and by the addition of 100 μL of a cell-lysis reagent supplied with the PGE2 radioimmunoassay (RIA) kit (Amersham Pharmacia Biotech, Arlington Heights, Ill.). All reagents and standards supplied in the RIA kit were prepared and the RIA performed according to the manufacturer's instructions. Assay buffer, diluted prostaglandin E2 (PGE2) standard and supernatant from the cell-based experiment (diluted 1:100 v/v) were then pipetted into appropriate tubes as specified in the kit instructions. […]
After this incubation, all tubes were placed in an ice-bath and 1 ml cold precipitating reagent supplied in the kit was added to the tubes, the content mixed and incubated for 25 min at 4° C. […] The supernatants of all tubes were decanted as specified in the kit instructions and the RIA samples analyzed on a gamma-counter. The levels of PGE2 generated by the test agent were then quantified in comparison with the PGE2-standard curve. Dose-response data for the test agent were constructed and the potency and intrinsic activity determined as described above for other assays.

[2] = biological target: T1, B2-receptors in h-TM cells (Homo sapiens, UniProt P30411); test: [Ca2+]i mobilization (FLIPR) in h-TM cells, agonist mode; type: cell-based; conditions: HTM; h-TM cells; mean ± SEM; read-out: Intrinsic Activity (Emax, % max relative to BK)
T1 construct: B2-receptor proteins in h-TM, h-CM and h-NPE cells; endogenous in cells; host or cells: human trabecular meshwork (h-TM), human ciliary muscle (h-CM) and human non-pigmented ciliary epithelial (h-NPE) cells
T1 sequence (P30411 1-391): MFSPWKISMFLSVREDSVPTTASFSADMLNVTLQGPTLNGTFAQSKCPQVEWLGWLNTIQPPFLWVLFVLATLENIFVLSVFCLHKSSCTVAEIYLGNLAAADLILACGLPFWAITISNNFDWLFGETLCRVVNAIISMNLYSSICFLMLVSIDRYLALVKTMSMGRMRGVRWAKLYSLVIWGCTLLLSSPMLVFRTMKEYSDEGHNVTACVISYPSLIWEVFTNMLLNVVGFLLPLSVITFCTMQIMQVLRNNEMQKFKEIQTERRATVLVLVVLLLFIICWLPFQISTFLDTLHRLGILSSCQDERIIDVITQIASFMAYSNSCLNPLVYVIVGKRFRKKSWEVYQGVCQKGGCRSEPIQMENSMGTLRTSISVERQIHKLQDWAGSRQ
Procedure: (§1) On the day of the experiment, one vial of FLIPR Calcium Assay Kit dye is re-suspended in 50 mL of a FLIPR buffer consisting of Hank's Balanced Salt Solution (HBSS), 20 mM HEPES, and 2.5 mM probenecid, pH 7.4. Cells are loaded with the calcium-sensitive dye by addition of an equal volume (50 μL) to each well of the 96-well plate and incubated with dye for 1 h at 23° C. After this time, the test compound plate and cell plate are placed in the FLIPR instrument. At the beginning of an experimental run, a signal test is performed to check the basal fluorescence signal from the dye-loaded cells and the uniformity of the signal across the plate. The basal fluorescence is adjusted between 8000-12000 counts by modifying the exposure time, the camera F-stop, or the laser power. Instrument settings for a typical assay are the following: laser power 0.3-0.6 W, camera F-stop F/2, and exposure time 0.4 sec.
(§2) Fluorescence data are collected in real-time at 1.0 sec intervals for the first 60 secs and at 6.0 sec intervals for an additional 120 secs. […] The data are then analyzed using an automated, iterative, sigmoidal curve-fitting computer program to obtain the potency and intrinsic activities of the test agents as previously described (Sharif et al. J. Pharmacol. Exp. Ther. 286: 1094-1102, 1998; Sharif et al. Invest. Ophthalmol. Vis. Sci. 39:2562-2571, 1998; Kelly et al. J. Pharmacol. Exp. Ther. 304: 238-245, 2003). The sources of materials and reagents for such assays can be found in the references cited above.

[3] = biological target: T2, B2-receptors in h-CM cells (Homo sapiens, UniProt P30411); test: [Ca2+]i mobilization (FLIPR) in h-CM cells, agonist mode; type: cell-based; conditions: h-CM cells; mean ± SEM; read-out: Intrinsic Activity (Emax, % max relative to BK)
T2 construct: B2-receptor proteins in h-TM, h-CM and h-NPE cells; endogenous in cells; host or cells: human trabecular meshwork (h-TM), human ciliary muscle (h-CM) and human non-pigmented ciliary epithelial (h-NPE) cells
T2 sequence (P30411 1-391): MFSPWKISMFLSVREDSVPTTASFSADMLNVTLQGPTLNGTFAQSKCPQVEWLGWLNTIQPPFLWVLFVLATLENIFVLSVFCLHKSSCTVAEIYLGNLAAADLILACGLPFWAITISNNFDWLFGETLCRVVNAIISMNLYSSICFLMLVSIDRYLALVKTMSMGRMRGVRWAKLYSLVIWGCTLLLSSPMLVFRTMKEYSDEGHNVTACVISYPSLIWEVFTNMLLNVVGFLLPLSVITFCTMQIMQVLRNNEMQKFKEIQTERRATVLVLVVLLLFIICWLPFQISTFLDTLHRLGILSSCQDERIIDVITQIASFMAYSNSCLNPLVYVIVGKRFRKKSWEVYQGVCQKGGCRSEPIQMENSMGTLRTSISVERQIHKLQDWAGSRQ
Procedure: as §1, §2

[4] = biological target: T3, B2-receptors in h-NPE cells (Homo sapiens, UniProt P30411); test: [Ca2+]i mobilization (FLIPR) in h-NPE cells, agonist mode; type: cell-based; conditions: h-NPE cells; mean ± SEM; read-out: Intrinsic Activity (Emax, % max relative to BK)
T3 construct: B2-receptor proteins in h-TM, h-CM and h-NPE cells; endogenous in cells; host or cells: human trabecular meshwork (h-TM), human ciliary muscle (h-CM) and human non-pigmented ciliary epithelial (h-NPE) cells
T3 sequence (P30411 1-391): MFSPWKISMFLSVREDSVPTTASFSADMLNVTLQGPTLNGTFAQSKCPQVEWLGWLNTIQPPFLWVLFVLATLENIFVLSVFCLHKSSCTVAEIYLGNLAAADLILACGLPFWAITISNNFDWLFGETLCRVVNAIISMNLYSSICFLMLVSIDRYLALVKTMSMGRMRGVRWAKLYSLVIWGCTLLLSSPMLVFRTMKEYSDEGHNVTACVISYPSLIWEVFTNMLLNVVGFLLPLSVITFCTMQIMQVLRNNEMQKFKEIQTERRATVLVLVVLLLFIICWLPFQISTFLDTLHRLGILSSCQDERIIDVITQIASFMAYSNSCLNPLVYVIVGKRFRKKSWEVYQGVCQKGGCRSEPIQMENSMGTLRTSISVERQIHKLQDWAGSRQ
Procedure: as §1, §2

[5] = biological target: T4, BK B2-Receptor in h-NPE cells (Homo sapiens, UniProt P30411); test: Antagonism of FR-190997-induced [Ca2+]i mobilization in h-NPE cells; type: cell-based; conditions: FR-190997 as the agonist, read-out: Antagonist Potency (Ki)
T4 construct: B2-receptor proteins in h-TM, h-CM and h-NPE cells; endogenous in cells; host or cells: human trabecular meshwork (h-TM), human ciliary muscle (h-CM) and human non-pigmented ciliary epithelial (h-NPE) cells
T4 sequence (P30411 1-391): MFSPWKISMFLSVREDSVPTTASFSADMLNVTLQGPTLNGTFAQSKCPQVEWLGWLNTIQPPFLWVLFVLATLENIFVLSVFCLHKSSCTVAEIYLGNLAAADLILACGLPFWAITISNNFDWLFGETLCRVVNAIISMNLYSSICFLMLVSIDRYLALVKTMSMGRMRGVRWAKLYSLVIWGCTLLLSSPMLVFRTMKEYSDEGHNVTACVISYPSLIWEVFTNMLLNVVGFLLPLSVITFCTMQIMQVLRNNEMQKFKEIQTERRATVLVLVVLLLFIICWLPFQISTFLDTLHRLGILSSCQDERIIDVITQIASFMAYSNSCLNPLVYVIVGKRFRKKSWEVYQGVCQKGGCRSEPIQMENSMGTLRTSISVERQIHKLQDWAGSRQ
Procedure: as §1, §2

[6] = tested on: conscious ocular hypertensive cynomolgus monkey eyes; test: IOP response in lasered (hypertensive) eyes of conscious cynomolgus monkeys, topical ocular; type: in vivo; conditions: for modulation of IOP: 300 μg topically administered; for % Change in IOP: Table 10, 300 μg topical ocular
Procedure: Intraocular pressure (IOP) is determined with an Alcon Pneumatonometer (Alcon Laboratories, Inc., Fort Worth, Tex.) after light corneal anesthesia with 0.1% proparacaine. Right eyes are hypertensive as a result of laser trabeculoplasty. After a baseline IOP measurement, test compound is instilled in the right eyes only of 8-10 cynomolgus monkeys. Vehicle is instilled in the right eyes of 5-6 additional animals. Subsequent IOP measurements are taken at 1, 3, and 6 hours. IOP measurements are also taken on left eyes (normotensive and untreated) at each of these time points. The percent change in IOP from baseline is determined for each animal for every IOP measurement (Sharif et al. J. Ocular Pharmacol. Ther. 17: 305-317, 2001; May et al., J Pharmacol Exp Ther. 306: 301-309, 2003; Sharif et al. Invest. Ophthalmol. Vis. Res. 47: 4001-4010, 2006). Group mean and standard error of the mean (SEM) are calculated for each time point. […] In cases where the compound of invention has poor ocular bioavailability, the compound may need to be administered intracamerally or intravitreally in order to observe the IOP-lowering efficacy.
The IOP-lowering effect was slow to develop but significant IOP reduction was observed even 3 hours post-dosing with maximum ocular hypotension observed 16-48 hours post-dosing (Tables 6-8; FIGS. 3b-5).

Row | Structure (SMILES) | Emax [2] [%] | Emax [3] [%] | Emax [4] [%] | modulation of IOP [6] | % Change in IOP ([6]; Dose 1/1 hr) [%] | % Change in IOP ([6]; Dose 1/3 hr) [%] | % Change in IOP ([6]; Dose 1/6 hr) [%] | further results
1 | O=C(O)CCC/C=C\C[C@@H]1[C@@H](/C=C/[C@@H](O)COc2cccc(C(F)(F)F)c2)[C@H](O)C[C@@H]1O (racemic) [fluprostenol, reference compound] | – | – | – | – | – | – | – | production of endogenous prostaglandins (PGE2) [1]: stimulate the production of endogenous prostaglandins
2 | N=C(N)NCCC[C@H](NC(=O)[C@H](Cc1ccccc1)NC(=O)[C@@H]1CCCN1C(=O)[C@H](CO)NC(=O)[C@H](Cc1ccccc1)NC(=O)CNC(=O)[C@@H]1CCCN1C(=O)[C@@H]1CCCN1C(=O)[C@H](CCCNC(=N)N)NC(=O)[C@@H](N)CCCCN)C(=O)O [Lys-BK] | 115 | 115 | 90 | – | – | – | – | –
3 | N=C(N)NCCC[C@H](N)C(=O)N1CCC[C@H]1C(=O)N1CCC[C@H]1C(=O)NCC(=O)N[C@@H](Cc1ccccc1)C(=O)N[C@@H](CO)C(=O)N1CCC[C@H]1C(=O)N[C@@H](Cc1ccccc1)C(=O)O [Des-Arg^9-BK] | 112 | 94 | 70 | – | – | – | – | –
4 | CNC(=O)c1ccc(/C=C/C(=O)NCC(=O)N(C)c2ccc(Cl)c(COc3cccc4ccc(C)nc34)c2Cl)cc1 [FR-165649, reference compound] | – | – | – | failed to modulate IOP | 1.0 ± 3.1 | 0.7 ± 3.5 | −6.2 ± 4.7 | Ki [5]: 146 nM; % Change in IOP ([6]; Dose 1/24 hr): −4.0 ± 3.2%
5 | CCCC[P+](CCCC)(CCCC)Cc1ccc(NC(=O)[C@H](Cc2ccc3ccccc3c2)NC(=NC2CCCCC2)NC2CCCCC2)cc1.[Cl-] [WIN-64338, reference compound] | – | – | – | failed to modulate IOP | 1.7 ± 1.6 | −10.4 ± 2.8 | 1.3 ± 1.3 | –
6 | CSCC[C@H](N)C(=O)N[C@@H](CCCCN)C(=O)N[C@@H](CCCNC(=N)N)C(=O)N1CCC[C@H]1C(=O)N1CCC[C@H]1C(=O)NCC(=O)N[C@@H](Cc1ccccc1)C(=O)N[C@@H](CO)C(=O)N1CCC[C@H]1C(=O)N[C@@H](Cc1ccccc1)C(=O)N[C@@H](CCCNC(=N)N)C(=O)O [Met-Lys-BK] | 111 | 110 | 77 | – | – | – | – | –
